Measurements from patent publication US9920010B2, “CXCR7 receptor modulators” (IDORSIA PHARMACEUTICALS LTD, priority 2013, dated 2018).

Target: T1, CXCR7 (Homo sapiens, UniProt P25106)
T1 construct: host or cells: CHO-K1 (PathHunter CHO-K1 CXCR7 b-arrestin cell line, stably transfected)
Assay: PathHunter CHO-K1 CXCR7 b-arrestin recruitment assay (CXCR7 agonistic activity)
Assay type: cell-based
Conditions: PathHunter CHO-K1 CXCR7 b-arrestin cell line
How it was run: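 Stable CHO-K1 line with C-terminally ProLink-tagged CXCR7 and β-arrestin 2–EA fusion; β-arrestin recruitment restores β-gal activity, read by chemiluminescence after 1 h RT detection. Cells seeded 24 h, starved in OPTIMEM 3–4 h, exposed to compounds 90 min at 37 °C in HBSS/HEPES/BSA. Geometric-mean EC50 from repeated measurements.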

T1 sequence (P25106 whole entry): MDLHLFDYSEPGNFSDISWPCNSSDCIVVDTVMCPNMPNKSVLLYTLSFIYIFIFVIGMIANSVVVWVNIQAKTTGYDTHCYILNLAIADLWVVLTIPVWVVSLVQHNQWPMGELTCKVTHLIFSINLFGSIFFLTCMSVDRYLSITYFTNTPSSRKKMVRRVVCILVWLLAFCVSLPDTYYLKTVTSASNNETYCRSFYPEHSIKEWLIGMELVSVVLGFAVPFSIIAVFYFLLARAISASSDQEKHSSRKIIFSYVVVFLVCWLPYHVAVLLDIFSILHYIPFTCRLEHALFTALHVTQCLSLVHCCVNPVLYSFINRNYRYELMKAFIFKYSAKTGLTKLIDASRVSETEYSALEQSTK
T1 sequence (P32121 whole entry partner): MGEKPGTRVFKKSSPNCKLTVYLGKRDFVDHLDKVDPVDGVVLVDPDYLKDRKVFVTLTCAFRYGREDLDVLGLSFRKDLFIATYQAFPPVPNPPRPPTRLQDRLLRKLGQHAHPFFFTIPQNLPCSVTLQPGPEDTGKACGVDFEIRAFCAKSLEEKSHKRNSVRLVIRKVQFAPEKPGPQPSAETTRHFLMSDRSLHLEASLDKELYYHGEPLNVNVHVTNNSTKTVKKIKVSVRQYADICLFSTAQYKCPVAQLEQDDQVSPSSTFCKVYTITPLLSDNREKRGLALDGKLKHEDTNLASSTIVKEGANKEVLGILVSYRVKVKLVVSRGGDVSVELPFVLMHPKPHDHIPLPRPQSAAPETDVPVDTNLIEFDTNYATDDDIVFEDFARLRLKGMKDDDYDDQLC

EC50	Compound
0.257 µM	CCCCNC(=O)N1CCc2c(cccc2NCC(=O)N(CCNC)Cc2ccccc2C(F)(F)F)C1 [compound 405]
0.374 µM	CN(C)CCN(Cc1ccnn1C)C(=O)CNc1cccc2c1CCN(CC1CC1)C2 [Example 264, 2-(2-Cyclopropylmethyl-1,2,3,4-tetrahydro-isoquinolin-5-ylamino)-N-(2-dimethylamino-ethyl)-N-(2-methyl-2H-pyrazol-3-ylmethyl)-acetamide]
0.005 µM	O=C(CNc1cccc2c1CCN(CC1CC1)C2)N(Cc1ccccc1C(F)(F)F)CC1CCNC1 (racemic) [compound 441]
0.043 µM	CC(C)(C)CCN(Cc1ncccc1C(F)(F)F)C(=O)CNc1cccc2c1CCN(CC1CC1)C2 [Example 275, 2-(2-Cyclopropylmethyl-1,2,3,4-tetrahydro-isoquinolin-5-ylamino)-N-(3,3-dimethyl-butyl)-N-(3-trifluoromethyl-pyridin-2-ylmethyl)-acetamide]
0.074 µM	CCN1CCc2cccc(NCC(=O)N(CCCN(C)C)Cc3ccccc3)c2C1 [compound 507]
0.028 µM	CCC(=O)N1CCc2c(cccc2NCC(=O)N(CCC2CCCN2C)Cc2ccccc2)C1 (racemic) [Example 32, rac-N-Benzyl-N-[2-(1-methyl-pyrrolidin-2-yl)-ethyl]-2-(2-propionyl-1,2,3,4-tetrahydro-isoquinolin-5-ylamino)-acetamide]
0.1 µM	CN(C)CCN(Cc1ccccc1)C(=O)CNc1cccc2c1CCN(C)C2 [compound 106]
0.043 µM	CN(C)CCN(CCc1cccc(C(F)(F)F)c1)C(=O)CNc1cccc2c1CCN(CC1CC1)C2 [Example 55, 2-(2-Cyclopropylmethyl-1,2,3,4-tetrahydro-isoquinolin-5-ylamino)-N-(2-dimethylamino-ethyl)-N-[2-(3-trifluoromethyl-phenyl)-ethyl]-acetamide]
0.06 µM	CNCCN(Cc1ncccc1C(F)(F)F)C(=O)CNc1cccc2c1CCN(C(=O)OC(C)C)C2 [compound 424]
0.015 µM	O=C(CNc1cccc2c1CCN(CC1CC1)C2)N(CCN1CCNCC1)Cc1ccccc1C(F)(F)F [compound 438, 2-(2-Cyclopropylmethyl-1,2,3,4-tetrahydro-isoquinolin-5-ylamino)-N-(2-piperazin-1-yl-ethyl)-N-(2-trifluoromethyl-benzyl)-acetamide]
0.15 µM	CC(C)(C)OC(=O)N1CCC(N(Cc2ccccc2)C(=O)CNc2cccc3c2CCN(CC2CC2)C3)C1 (racemic) [Example 65, rac-3-{Benzyl-[2-(2-cyclopropylmethyl-1,2,3,4-tetrahydro-isoquinolin-5-ylamino)-acetyl]-amino}-pyrrolidine-1-carboxylic acid tert-butyl ester]
0.03 µM	CNCCN(Cc1ccccc1C(F)(F)F)C(=O)CNc1cccc2c1CCN(C(=O)C1CCOC1)C2 (racemic) [compound 392]
0.08 µM	CN(C)CCN(Cc1ccccc1C(F)(F)F)C(=O)CNc1cccc2c1CN(S(=O)(=O)c1ccccc1)CC2 [compound 545]
0.019 µM	CCC(=O)N1CCc2c(cccc2NCC(=O)N(CCN(CC)CC)Cc2ccccc2)C1 [Example 27, N-Benzyl-N-(2-diethylamino-ethyl)-2-(2-propionyl-1,2,3,4-tetrahydro-isoquinolin-5-ylamino)-acetamide]
0.047 µM	CN(C)CCN(Cc1ccc(Cl)cn1)C(=O)CNc1cccc2c1CCN(CC1CC1)C2 [Example 261, N-(5-Chloro-pyridin-2-ylmethyl)-2-(2-cyclopropylmethyl-1,2,3,4-tetrahydro-isoquinolin-5-ylamino)-N-(2-dimethylamino-ethyl)-acetamide]
0.053 µM	CCC(=O)N1CCc2c(cccc2NCC(=O)N(CCN(C)C)Cc2cccc(C)c2)C1 [Example 14, N-(2-Dimethylamino-ethyl)-N-(3-methyl-benzyl)-2-(2-propionyl-1,2,3,4-tetrahydro-isoquinolin-5-ylamino)-acetamide]
0.003 µM	CN(CCF)CCN(Cc1ccccc1C(F)(F)F)C(=O)CNc1cccc2c1CCN(CC1CC1)C2 [Example 244, 2-(2-Cyclopropylmethyl-1,2,3,4-tetrahydro-isoquinolin-5-ylamino)-N-{2-[(2-fluoro-ethyl)-methyl-amino]-ethyl}-N-(2-trifluoromethyl-benzyl)-acetamide]
0.12 µM	CN(C)CCN(Cc1ccccc1)C(=O)CNc1cccc2c1CCN(Cc1ccccc1)C2 [compound 123]
0.044 µM	CCN1CCc2cccc(NCC(=O)N(CCN(C)C)Cc3cccc(C)n3)c2C1 [compound 526, N-(2-Dimethylamino-ethyl)-2-(2-ethyl-1,2,3,4-tetrahydro-isoquinolin-8-ylamino)-N-(6-methyl-pyridin-2-ylmethyl)-acetamide]

EC50	Compound
0.012 µM	CCCC(=O)N1CCc2c(cccc2NCC(=O)N(CCNC)Cc2ccccc2C(F)(F)F)C1 [compound 386, 2-(2-Butyryl-1,2,3,4-tetrahydro-isoquinolin-5-ylamino)-N-(2-methylamino-ethyl)-N-(2-trifluoromethyl-benzyl)-acetamide]
0.432 µM	CC(C)(C)OC(=O)N1CCc2c(/C=C/C(=O)N(Cc3ccccc3)C3CCS(=O)(=O)C3)cccc2C1 (stereo not shown) [Example 95, 5-{(E)-2-[Benzyl-(1,1-dioxo-tetrahydro-1l6-thiophen-3-yl)-carbamoyl]-vinyl}-3,4-dihydro-1H-isoquinoline-2-carboxylic acid tert-butyl ester]
0.096 µM	CN(C)CCN(Cc1ccccc1)C(=O)CNc1cccc2c1CCN(CC(C)(C)C)C2 [compound 116]
0.004 µM	O=C(CNc1cccc2c1CN(CC1CC1)CC2)N(CCN1CCCC1)Cc1ccccc1C(F)(F)F [compound 565, 2-(2-Cyclopropylmethyl-1,2,3,4-tetrahydro-isoquinolin-8-ylamino)-N-(2-pyrrolidin-1-yl-ethyl)-N-(2-trifluoromethyl-benzyl)-acetamide]
0.42 µM	CC(C)(O)CN(Cc1ncccc1Br)C(=O)CNc1cccc2c1CN(C(=O)[C@H]1C[C@H]1F)CC2 (relative stereo) [compound 461]
0.039 µM	CCC(=O)N1CCc2c(cccc2NCC(=O)N(CCN(C)C)Cc2cccc(F)c2)C1 [Example 21, N-(2-Dimethylamino-ethyl)-N-(3-fluoro-benzyl)-2-(2-propionyl-1,2,3,4-tetrahydro-isoquinolin-5-ylamino)-acetamide]
0.009 µM	CN(C)CCN(Cc1cccc(OC(F)(F)F)c1)C(=O)CNc1cccc2c1CCN(CC1CC1)C2 [Example 221, 2-(2-Cyclopropylmethyl-1,2,3,4-tetrahydro-isoquinolin-5-ylamino)-N-(2-dimethylamino-ethyl)-N-(3-trifluoromethoxy-benzyl)-acetamide]
0.028 µM	CN(CCN(Cc1ncccc1C(F)(F)F)C(=O)CNc1cccc2c1CCN(CC1CC1)C2)CC(F)(F)F [Example 280, 2-(2-Cyclopropylmethyl-1,2,3,4-tetrahydro-isoquinolin-5-ylamino)-N-{2-[methyl-(2,2,2-trifluoro-ethyl)-amino]-ethyl}-N-(3-trifluoromethyl-pyridin-2-ylmethyl)-acetamide]
0.005 µM	COCCN1CCc2c(/C=C/C(=O)N(CCN(C)C)Cc3ccccc3C(F)(F)F)cccc2C1 [Example 317, (E)-N-(2-Dimethylamino-ethyl)-3-[2-(2-methoxy-ethyl)-1,2,3,4-tetrahydro-isoquinolin-5-yl]-N-(2-trifluoromethyl-benzyl)-acrylamide]
0.017 µM	Cc1cccnc1CN(CCC(C)(C)C)C(=O)CNc1cccc2c1CCN(CC1CC1)C2 [Example 276, 2-(2-Cyclopropylmethyl-1,2,3,4-tetrahydro-isoquinolin-5-ylamino)-N-(3,3-dimethyl-butyl)-N-(3-methyl-pyridin-2-ylmethyl)-acetamide]
0.028 µM	O=C(CNc1cccc2c1CCN(CC1CC1)C2)N(CCN1CCC(F)(F)CC1)Cc1ccccc1C(F)(F)F [Example 277, 2-(2-Cyclopropylmethyl-1,2,3,4-tetrahydro-isoquinolin-5-ylamino)-N-[2-(4,4-difluoro-piperidin-1-yl)-ethyl]-N-(2-trifluoromethyl-benzyl)-acetamide]
0.017 µM	CC(C)CCN(Cc1ccccc1)C(=O)COc1cccc2c1CCN(CC1CC1)C2 [compound 163, N-Benzyl-2-(2-cyclopropylmethyl-1,2,3,4-tetrahydro-isoquinolin-5-yloxy)-N-(3-methyl-butyl)-acetamide]
0.382 µM	CCN1CCc2cccc(NCC(=O)N(CCN(C)C(=O)OC(C)(C)C)Cc3ccccc3C(F)(F)F)c2C1 [compound 515]
0.25 µM	CNCCN(Cc1ccccc1C(F)(F)F)C(=O)CNc1cccc2c1CCN(C(=O)OCC(C)C)C2 [compound 401]
0.014 µM	CC(C)OC(=O)N1CCc2cccc(NCC(=O)N(CCN(C)C)Cc3ccccc3C(F)(F)F)c2C1 [compound 553, 8-({[(2-Dimethylamino-ethyl)-(2-trifluoromethyl-benzyl)-carbamoyl]-methyl}-amino)-3,4-dihydro-1H-isoquinoline-2-carboxylic acid isopropyl ester]
0.034 µM	CCN1CCc2cccc(NCC(=O)N(CCC3CCCN3C)Cc3ccccc3)c2C1 (racemic) [compound 508]
0.003 µM	CN(C)CCN(Cc1ccccc1C(F)(F)F)C(=O)CCc1cccc2c1CN(CC1CC1)CC2 [compound 454, 3-(2-Cyclopropylmethyl-1,2,3,4-tetrahydro-isoquinolin-8-yl)-N-(2-dimethylamino-ethyl)-N-(2-trifluoromethyl-benzyl)-propionamide]
0.029 µM	CN(C)CCN(Cc1ccccc1C(F)(F)F)C(=O)NCc1cccc2c1CCN(CC1CC1)C2 [Example 568, 3-(2-Cyclopropylmethyl-1,2,3,4-tetrahydro-isoquinolin-5-ylmethyl)-1-(2-dimethylamino-ethyl)-1-(2-trifluoromethyl-benzyl)-urea]
